# Measured values as given in patent US9346810B2, “Pyrrolopyrimidine compounds and uses thereof” (HUTCHISON MEDIPHARMA LIMITED, priority 2010, dated 2016).
# Where two headings read alike, the source gives them in different places.
# Assays:
# [1] = biological target: Recombinant human JAK3 catalytic domain (Homo sapiens (Human), UniProt P52333); experiment: JAK3 kinase assay (Z'-LYTE, Tyr 6 Peptide); format: biochemical
# Procedure: (§1) JAK1/2/3 kinase assay are performed in vitro using Kit-Tyr 6 Peptide (Invitrogen, Cat. No. PV4122). TYK2 kinase assay are performed in vitro using Z′-LYTE™ Kinase Assay Kit-Tyr 3 Peptide (Invitrogen, Cat. No. PV3192). […] All compounds are initially tested at 8 different concentrations (1 μM down to 0.0003 μM) using a 1:3 serial dilution scheme.
# [2] = biological target: Recombinant human JAK2 catalytic domain (Homo sapiens (Human), UniProt O60674); experiment: JAK2 kinase assay (Z'-LYTE, Tyr 6 Peptide); format: biochemical
# Sequence of Recombinant human JAK2 catalytic domain (O60674 849-1124): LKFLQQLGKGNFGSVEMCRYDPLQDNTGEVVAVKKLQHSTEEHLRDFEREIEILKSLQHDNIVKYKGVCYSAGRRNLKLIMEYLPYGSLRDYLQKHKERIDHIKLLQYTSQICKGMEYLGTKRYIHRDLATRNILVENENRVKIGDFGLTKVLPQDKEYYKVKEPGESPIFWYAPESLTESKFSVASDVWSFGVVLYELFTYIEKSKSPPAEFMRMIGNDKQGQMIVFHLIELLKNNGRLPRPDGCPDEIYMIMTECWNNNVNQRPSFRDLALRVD
# Procedure: as §1
# [3] = read-out: IC50 in JAK3 kinase assay
# [4] = read-out: IC50 in JAK2 kinase assay
# Sequence of Recombinant human JAK3 catalytic domain (P52333 822-1111): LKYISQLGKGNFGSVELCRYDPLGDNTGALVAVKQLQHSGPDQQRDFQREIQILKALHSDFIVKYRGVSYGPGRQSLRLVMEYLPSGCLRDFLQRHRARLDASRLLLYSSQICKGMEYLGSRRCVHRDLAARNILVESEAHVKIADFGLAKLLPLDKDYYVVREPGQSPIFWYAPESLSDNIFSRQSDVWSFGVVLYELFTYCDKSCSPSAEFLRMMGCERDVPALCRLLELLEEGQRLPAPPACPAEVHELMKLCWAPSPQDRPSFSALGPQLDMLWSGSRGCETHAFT
Compound,"IC50 [1, 3] [nM]","IC50 [2, 4] [nM]",also measured
CN(c1ccc(C#N)c(F)c1)[C@@H]1CCN(c2ncnc3[nH]ccc23)C1 [Compound 105],,,"IC50 ([1]; read-out: JAK3 (enzyme, IC50)): 359 nM; IC50 ([2]; read-out: JAK2 (enzyme, IC50)): 48.7 nM"
CN(c1ccc(C#N)cn1)[C@@H]1CCN(c2ccnc3[nH]ccc23)C1 [Compound 92],100 to 1000,1 to 100,
"CN(c1ccc2[nH]c(=O)[nH]c2n1)[C@@H]1CCN(c2ncnc3[nH]ccc23)C1 [Compound 164, (R)-5-((1-(7H-pyrrolo[2,3-d]pyrimidin-4-yl)pyrrolidin-3-yl)(methyl)amino)-1H-Imidazo[4,5-b]pyridin-2(3H)-one]",100 to 1000,1 to 100,
CC(C)S(=O)(=O)N(C)[C@@H]1CCN(c2ncnc3[nH]ccc23)C1 [Compound 49],,100 to 1000,
CN(c1ccc(C(=O)NCc2ccccc2)cc1F)[C@@H]1CCN(c2ncnc3[nH]ccc23)C1 [Compound 187],100 to 1000,1 to 100,
"COC(=O)c1ccc(N(C)[C@@H]2CCN(c3ncnc4[nH]ccc34)C2)nc1 [Compound 168, (R)-methyl 6-((1-(7H-pyrrolo[2,3-d]pyrimidin-4-yl)pyrrolidin-3-yl)(methyl)amino)nicotinate]",100 to 1000,1 to 100,
CN(c1c(F)cc(C#N)cc1F)[C@@H]1CCN(c2ncnc3[nH]ccc23)C1 [Compound 108],,100 to 1000,
"CN(c1ccc(C(=O)O)cn1)[C@@H]1CCN(c2ncnc3[nH]ccc23)C1 [Compound 170, (R)-6-((1-(7H-pyrrolo[2,3-d]pyrimidin-4-yl)pyrrolidin-3-yl)(methyl)amino)nicotinic acid]",,100 to 1000,
CN(c1ccc(F)cn1)[C@@H]1CCN(c2ncnc3[nH]ccc23)C1 [Compound 66],1 to 100,1 to 100,
CN(c1ccc(C#N)c(Br)c1)[C@@H]1CCN(c2ncnc3[nH]ccc23)C1 [Compound 114],100 to 1000,1 to 100,
CN(c1ccc(C(=O)N[C@@H](CO)c2ccccc2)cn1)[C@@H]1CCN(c2ncnc3[nH]ccc23)C1 [Compound 176],,1 to 100,
"CCS(=O)(=O)Nc1ccc(N(C)[C@@H]2CCN(c3ncnc4[nH]ccc34)C2)nc1 [Compound 210, (R)—N-(6-((1-(7H-pyrrolo[2,3-d]pyrimidin-4-yl)pyrrolidin-3-yl)(methyl)amino)pyridin-3-yl)ethanesulfonamide]",,,IC50 [1]: 100 to 1000 nM; IC50 [2]: 1 to 100 nM
CN(c1ccc(S(N)(=O)=O)cn1)[C@@H]1CCN(c2ncnc3[nH]ccc23)C1 [Compound 234],,,"IC50 ([1]; read-out: JAK3 (enzyme, IC50)): 86.3 nM"
CN(c1ncc(Br)cc1C#N)[C@@H]1CCN(c2ncnc3[nH]ccc23)C1 [Compound 89],,100 to 1000,
CN([C@@H]1CCN(c2ncnc3[nH]ccc23)C1)S(=O)(=O)c1cccc(C#N)c1 [Compound 10],,100 to 1000,
CN(c1ccc([N+](=O)[O-])cn1)[C@@H]1CCN(c2ncnc3[nH]ccc23)C1 [Compound 70],100 to 1000,100 to 1000,
"CN(c1ccc2nc[nH]c2n1)[C@@H]1CCN(c2ncnc3[nH]ccc23)C1 [Compound 163, (R)—N-(1-(7H-pyrrolo[2,3-d]pyrimidin-4-yl)pyrrolidin-3-yl)-N-methyl-3H-imidazo[4,5-b]pyridin-5-amine]",100 to 1000,1 to 100,
CN(c1cnc(C#N)cn1)[C@@H]1CCN(c2ncnc3[nH]ccc23)C1 [Compound 84],100 to 1000,,
CN(c1nc(Cl)c(C#N)cc1F)[C@@H]1CCN(c2ncnc3[nH]ccc23)C1 [Compound 87],100 to 1000,1 to 100,
COC[C@H](NC(=O)c1ccc(N(C)[C@@H]2CCN(c3ncnc4[nH]ccc34)C2)nc1)c1ccccc1 [Compound 209],1 to 100,1 to 100,
Cc1cc(N(C)[C@@H]2CCN(c3ncnc4[nH]ccc34)C2)nc(Cl)c1C#N [Compound 72],,100 to 1000,

Compound,"IC50 [1, 3] [nM]","IC50 [2, 4] [nM]",also measured
CCOc1cnc(N(C)[C@@H]2CCN(c3ncnc4[nH]ccc34)C2)cn1 [Compound 136],,100 to 1000,
CN(c1ccc(C#N)c(Cl)n1)[C@@H]1CCN(c2ncnc3[nH]ccc23)C1 [Compound 90],,100 to 1000,
"CN(c1ccc(-c2nn[nH]n2)cn1)[C@@H]1CCN(c2ncnc3[nH]ccc23)C1 [Compound 160, (R)—N-(1-(7H-pyrrolo[2,3-d]pyrimidin-4-yl)pyrrolidin-3-yl)-N-methyl-5-(2H-tetrazol-5-yl)pyridin-2-amine]",,100 to 1000,
N#Cc1ccc2c(c1)CCN2C1CCN(c2ncnc3[nH]ccc23)C1 (centres unmarked) [Compound 46],,1 to 100,
CN(c1ccc(C(=O)NC(CO)c2ccc(Cl)cc2)cc1F)[C@@H]1CCN(c2ncnc3[nH]ccc23)C1 (some centres unmarked) [Compound 201],,1 to 100,
C#CCN(c1ccc(C#N)cc1F)[C@@H]1CCN(c2ncnc3[nH]ccc23)C1 [Compound 130],,100 to 1000,
N#CCN(C1CC1)[C@@H]1CCN(c2ncnc3[nH]ccc23)C1 [Compound 55],,100 to 1000,
"CN(c1ccc2nn[nH]c2n1)[C@@H]1CCN(c2ncnc3[nH]ccc23)C1 [Compound 167, (R)—N-(1-(7H-pyrrolo[2,3-d]pyrimidin-4-yl)pyrrolidin-3-yl)-N-methyl-3H-[1,2,3]triazolo[4,5-b]pyridin-5-amine]",,100 to 1000,
CN(c1ncc(C#N)cc1Br)[C@@H]1CCN(c2ncnc3[nH]ccc23)C1 [Compound 99],100 to 1000,1 to 100,
CN(c1ccc(C#N)cn1)[C@@H]1CCN(c2ncnc3[nH]ccc23)C1 [Compound 71],100 to 1000,1 to 100,
CN(c1ncc(C#N)cc1Cl)[C@@H]1CCN(c2ncnc3[nH]ccc23)C1 [Compound 83],,100 to 1000,
CN(c1ccc(C#N)cn1)[C@H]1CCN(c2ncnc3[nH]ccc23)C1 [Compound 102],100 to 1000,1 to 100,
CN(c1ccc(Cl)nn1)[C@@H]1CCN(c2ncnc3[nH]ccc23)C1 [Compound 85],,100 to 1000,
CN(c1cccc(C#N)n1)[C@@H]1CCN(c2ncnc3[nH]ccc23)C1 [Compound 91],100 to 1000,1 to 100,
CN(c1ccc(-c2cccs2)cn1)[C@@H]1CCN(c2ncnc3[nH]ccc23)C1 [Compound 147],,100 to 1000,
CN(c1c(F)cc(C(=O)N[C@@H](CO)c2ccccc2)cc1F)[C@@H]1CCN(c2ncnc3[nH]ccc23)C1 [Compound 208],1 to 100,1 to 100,
CN(c1ccc(C(=O)N[C@@H](CO)c2ccccc2)cc1F)[C@@H]1CCN(c2ncnc3[nH]ccc23)C1 [Compound 179],,1 to 100,
C#CCN(c1ccc(S(C)(=O)=O)cn1)[C@@H]1CCN(c2ncnc3[nH]ccc23)C1 [Compound 58],,100 to 1000,
CN(c1ncccc1C#N)[C@@H]1CCN(c2ncnc3[nH]ccc23)C1 [Compound 159],100 to 1000,1 to 100,
CN(c1ccc(C#N)c2ccccc12)[C@@H]1CCN(c2ncnc3[nH]ccc23)C1 [Compound 111],100 to 1000,1 to 100,
CN(c1ccc(C(=O)NC(CO)c2ccccc2Cl)cc1F)[C@@H]1CCN(c2ncnc3[nH]ccc23)C1 (some centres unmarked) [Compound 207],,100 to 1000,

Compound,"IC50 [1, 3] [nM]","IC50 [2, 4] [nM]",also measured
CN(C(=O)c1ccc(N(C)[C@@H]2CCN(c3ncnc4[nH]ccc34)C2)nc1)c1ccc(F)cc1 [Compound 178],,100 to 1000,
CN(c1ccccn1)[C@@H]1CCN(c2ncnc3[nH]ccc23)C1 [Compound 156],100 to 1000,1 to 100,
CN(c1ncc(C#N)cc1[N+](=O)[O-])[C@@H]1CCN(c2ncnc3[nH]ccc23)C1 [Compound 96],100 to 1000,100 to 1000,
Cc1cc(Cl)nc(N(C)[C@@H]2CCN(c3ncnc4[nH]ccc34)C2)c1C#N [Compound 73],100 to 1000,1 to 100,
C=CCN(C1CCCC1)[C@@H]1CCN(c2ncnc3[nH]ccc23)C1 [Compound 40],100 to 1000,1 to 100,
Cc1cc(N(C)[C@@H]2CCN(c3ncnc4[nH]ccc34)C2)ncc1C#N [Compound 157],,1 to 100,
CN(c1ccc(C(=O)Nc2cccc(Cl)c2)cc1F)[C@@H]1CCN(c2ncnc3[nH]ccc23)C1 [Compound 185],,1 to 100,
CN(C1CCCC1)[C@@H]1CCN(c2ncnc3[nH]ccc23)C1 [Compound 53],,100 to 1000,
CCCC(=O)N(C)[C@@H]1CCN(c2ncnc3[nH]ccc23)C1 [Compound 3],,100 to 1000,
"C#Cc1ccc(N(C)[C@@H]2CCN(c3ncnc4[nH]ccc34)C2)nc1 [Compound 162, (R)—N-(1-(7H-pyrrolo[2,3-d]pyrimidin-4-yl)pyrrolidin-3-yl)-5-ethynyl-N-methylpyridin-2-amine]",1 to 100,1 to 100,
CN(c1ncnc2ccccc12)[C@@H]1CCN(c2ncnc3[nH]ccc23)C1 [Compound 80],100 to 1000,1 to 100,
CN(c1ccc(C(F)(F)F)nn1)[C@@H]1CCN(c2ncnc3[nH]ccc23)C1 [Compound 62],100 to 1000,1 to 100,
CN(C(=O)C1(C#N)CC1)[C@@H]1CCN(c2ncnc3[nH]ccc23)C1 [Compound 6],,100 to 1000,
CN(C(=O)CC(F)(F)F)[C@@H]1CCN(c2ncnc3[nH]ccc23)C1 [Compound 25],100 to 1000,,
C#CCN(C1CCOC1)[C@@H]1CCN(c2ncnc3[nH]ccc23)C1 (some centres unmarked) [Compound 56],,100 to 1000,
N#CCN(C1CCC1)[C@@H]1CCN(c2ncnc3[nH]ccc23)C1 [Compound 52],,100 to 1000,
CN(c1ccc(C#N)cc1Br)[C@@H]1CCN(c2ncnc3[nH]ccc23)C1 [Compound 115],,100 to 1000,
CN(c1ccc(C(=O)Nc2ccccc2F)cn1)[C@@H]1CCN(c2ncnc3[nH]ccc23)C1 [Compound 192],,1 to 100,
CN([C@@H]1CCN(c2ncnc3[nH]ccc23)C1)S(=O)(=O)c1cccc([N+](=O)[O-])c1 [Compound 12],,100 to 1000,
CN(c1ccc(NS(=O)(=O)c2ccc(F)cc2)cn1)[C@@H]1CCN(c2ncnc3[nH]ccc23)C1 [Compound 212],,1 to 100,
CN(c1ncc(C#N)cc1F)[C@@H]1CCN(c2ncnc3[nH]ccc23)C1 [Compound 158],,100 to 1000,
